Assay results: ChEMBL document CHEMBL4190336, “Discovery of a Novel Series of 7-Azaindole Scaffold Derivatives as PI3K Inhibitors with Potent Activity” (ACS Med Chem Lett, 2017)

Assays:
[1] = target: Phosphatidylinositol 4,5-bisphosphate 3-kinase catalytic subunit gamma isoform (Homo sapiens, UniProt P48736)
Description: Inhibition of recombinant full length His-tagged human PI3K p110gamma expressed in baculovirus expression system using PIP2/PS as substrate after 1 hr by ADP-Glo luminescence assay

T47D = test: Growth inhibition of human T47D cells after 72 hrs by SRB assay; assay type: functional
[2] = target: Phosphatidylinositol 4,5-bisphosphate 3-kinase catalytic subunit beta isoform (Homo sapiens, UniProt P42338); test: Inhibition of recombinant human PI3K p110beta using PIP2/PS as substrate after 1 hr by ADP-Glo luminescence assay
MCF7 = test: Growth inhibition of human MCF7 cells after 72 hrs by SRB assay; assay type: functional; conditions: MCF7, 72 h
U-87 MG = test: Growth inhibition of human U87MG cells after 72 hrs by SRB assay; assay type: functional, U-87MG ATCC
NCI-H460 = test: Growth inhibition of human NCI-H460 cells after 72 hrs by SRB assay; assay type: functional; conditions: NCI-H460, 72 h
Pfeiffer = test: Growth inhibition of human Pfeiffer cells by CCK8 assay; assay type: functional
[3] = target: PI3-kinase p110-delta/p85-alpha (Homo sapiens, UniProt O00329); test: Inhibition of recombinant human full length His-tagged PI3K p110delta/p85alpha expressed in baculovirus expression system using PIP2/PS as substrate after 1 hr by ADP-Glo luminescence assay
[4] = target: PI3-kinase p110-alpha/p85-alpha (Homo sapiens, UniProt P42336); test: Inhibition of recombinant full length N-terminal His-tagged human PI3K p110alpha/p85alpha expressed in baculovirus expression system using PIP2/PS as substrate after 1 hr by ADP-Glo luminescence assay
KARPAS-422 = test: Growth inhibition of human KARPAS422 cells by CCK8 assay; assay type: functional

Phosphatidylinositol 4,5-bisphosphate 3-kinase catalytic subunit beta isoform, sequence (P42338 whole entry, canonical isoform): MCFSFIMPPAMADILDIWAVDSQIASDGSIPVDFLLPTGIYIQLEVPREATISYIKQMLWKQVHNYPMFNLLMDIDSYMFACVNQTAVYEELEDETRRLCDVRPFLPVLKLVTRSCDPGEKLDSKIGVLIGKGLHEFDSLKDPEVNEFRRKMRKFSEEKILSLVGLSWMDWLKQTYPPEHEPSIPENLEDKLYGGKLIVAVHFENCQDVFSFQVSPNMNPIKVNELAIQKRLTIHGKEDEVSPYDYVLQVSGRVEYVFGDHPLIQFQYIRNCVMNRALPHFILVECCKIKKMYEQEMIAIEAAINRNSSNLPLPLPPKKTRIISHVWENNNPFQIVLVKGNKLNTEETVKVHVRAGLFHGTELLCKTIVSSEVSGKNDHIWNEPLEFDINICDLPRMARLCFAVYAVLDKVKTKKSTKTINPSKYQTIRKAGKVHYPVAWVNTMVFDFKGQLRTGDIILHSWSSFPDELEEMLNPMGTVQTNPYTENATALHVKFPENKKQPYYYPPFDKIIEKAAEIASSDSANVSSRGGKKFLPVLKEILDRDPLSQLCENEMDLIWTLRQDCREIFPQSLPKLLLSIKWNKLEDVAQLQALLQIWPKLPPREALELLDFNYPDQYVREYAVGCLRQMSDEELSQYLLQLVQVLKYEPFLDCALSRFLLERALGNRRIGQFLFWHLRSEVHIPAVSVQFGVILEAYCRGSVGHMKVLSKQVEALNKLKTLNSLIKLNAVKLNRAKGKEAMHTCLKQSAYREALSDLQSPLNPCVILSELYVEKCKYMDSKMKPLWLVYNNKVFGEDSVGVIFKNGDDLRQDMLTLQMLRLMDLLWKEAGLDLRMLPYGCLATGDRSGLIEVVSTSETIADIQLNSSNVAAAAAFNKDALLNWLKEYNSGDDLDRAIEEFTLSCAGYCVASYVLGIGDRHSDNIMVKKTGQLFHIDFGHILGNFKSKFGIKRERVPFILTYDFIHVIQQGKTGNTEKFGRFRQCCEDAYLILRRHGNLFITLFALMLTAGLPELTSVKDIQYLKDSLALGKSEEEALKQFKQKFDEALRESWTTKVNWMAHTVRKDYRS
PI3-kinase p110-delta/p85-alpha, sequence (P27986 whole entry): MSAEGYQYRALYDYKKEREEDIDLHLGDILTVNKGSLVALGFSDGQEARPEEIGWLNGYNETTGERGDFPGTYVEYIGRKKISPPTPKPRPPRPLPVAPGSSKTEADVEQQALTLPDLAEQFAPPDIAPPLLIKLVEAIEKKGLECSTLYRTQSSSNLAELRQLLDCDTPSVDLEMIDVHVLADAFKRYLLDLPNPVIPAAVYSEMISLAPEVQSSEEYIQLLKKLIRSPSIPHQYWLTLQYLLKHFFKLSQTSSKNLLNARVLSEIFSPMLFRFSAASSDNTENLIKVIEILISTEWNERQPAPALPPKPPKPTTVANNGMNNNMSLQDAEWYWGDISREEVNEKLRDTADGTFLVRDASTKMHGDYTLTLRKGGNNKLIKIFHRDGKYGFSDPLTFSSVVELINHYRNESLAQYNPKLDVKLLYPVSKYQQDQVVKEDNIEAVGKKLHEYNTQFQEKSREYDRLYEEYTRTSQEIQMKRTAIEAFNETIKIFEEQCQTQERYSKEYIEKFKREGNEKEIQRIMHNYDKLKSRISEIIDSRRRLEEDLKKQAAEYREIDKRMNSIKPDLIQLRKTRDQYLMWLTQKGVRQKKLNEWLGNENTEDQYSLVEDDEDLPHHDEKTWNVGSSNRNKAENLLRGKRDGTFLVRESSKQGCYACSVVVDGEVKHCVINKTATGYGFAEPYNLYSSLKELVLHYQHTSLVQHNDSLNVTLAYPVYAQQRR
PI3-kinase p110-delta/p85-alpha, sequence (O00329 whole entry): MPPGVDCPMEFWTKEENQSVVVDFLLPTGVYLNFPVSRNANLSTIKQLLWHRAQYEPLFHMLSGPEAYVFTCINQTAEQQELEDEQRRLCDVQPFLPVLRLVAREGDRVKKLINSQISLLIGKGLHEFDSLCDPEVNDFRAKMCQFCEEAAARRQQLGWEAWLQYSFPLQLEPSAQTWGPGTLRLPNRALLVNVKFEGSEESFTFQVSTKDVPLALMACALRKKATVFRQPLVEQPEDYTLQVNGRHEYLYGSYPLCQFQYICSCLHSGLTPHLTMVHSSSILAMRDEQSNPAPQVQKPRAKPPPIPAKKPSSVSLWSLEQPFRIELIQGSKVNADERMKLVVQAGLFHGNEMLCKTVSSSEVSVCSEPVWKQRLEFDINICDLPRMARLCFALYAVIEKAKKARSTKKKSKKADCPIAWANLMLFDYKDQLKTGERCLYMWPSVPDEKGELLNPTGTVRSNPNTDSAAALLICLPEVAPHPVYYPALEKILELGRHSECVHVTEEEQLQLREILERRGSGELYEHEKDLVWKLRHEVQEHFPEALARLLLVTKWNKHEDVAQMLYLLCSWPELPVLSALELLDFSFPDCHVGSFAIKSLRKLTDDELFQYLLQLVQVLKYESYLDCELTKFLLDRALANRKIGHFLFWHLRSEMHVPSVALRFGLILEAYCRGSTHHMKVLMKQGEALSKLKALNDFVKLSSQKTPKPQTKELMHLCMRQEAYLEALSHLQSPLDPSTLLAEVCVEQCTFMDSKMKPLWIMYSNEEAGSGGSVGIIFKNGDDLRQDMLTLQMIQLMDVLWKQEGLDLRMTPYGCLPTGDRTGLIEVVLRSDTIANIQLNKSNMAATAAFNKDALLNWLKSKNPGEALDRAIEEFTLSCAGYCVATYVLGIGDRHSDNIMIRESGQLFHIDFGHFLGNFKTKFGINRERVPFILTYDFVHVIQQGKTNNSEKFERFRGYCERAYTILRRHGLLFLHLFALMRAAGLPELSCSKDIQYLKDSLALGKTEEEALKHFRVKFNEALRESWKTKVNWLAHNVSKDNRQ
PI3-kinase p110-alpha/p85-alpha, sequence (P27986 whole entry): as the sequence (P27986 whole entry) above
PI3-kinase p110-alpha/p85-alpha, sequence (P42336 whole entry): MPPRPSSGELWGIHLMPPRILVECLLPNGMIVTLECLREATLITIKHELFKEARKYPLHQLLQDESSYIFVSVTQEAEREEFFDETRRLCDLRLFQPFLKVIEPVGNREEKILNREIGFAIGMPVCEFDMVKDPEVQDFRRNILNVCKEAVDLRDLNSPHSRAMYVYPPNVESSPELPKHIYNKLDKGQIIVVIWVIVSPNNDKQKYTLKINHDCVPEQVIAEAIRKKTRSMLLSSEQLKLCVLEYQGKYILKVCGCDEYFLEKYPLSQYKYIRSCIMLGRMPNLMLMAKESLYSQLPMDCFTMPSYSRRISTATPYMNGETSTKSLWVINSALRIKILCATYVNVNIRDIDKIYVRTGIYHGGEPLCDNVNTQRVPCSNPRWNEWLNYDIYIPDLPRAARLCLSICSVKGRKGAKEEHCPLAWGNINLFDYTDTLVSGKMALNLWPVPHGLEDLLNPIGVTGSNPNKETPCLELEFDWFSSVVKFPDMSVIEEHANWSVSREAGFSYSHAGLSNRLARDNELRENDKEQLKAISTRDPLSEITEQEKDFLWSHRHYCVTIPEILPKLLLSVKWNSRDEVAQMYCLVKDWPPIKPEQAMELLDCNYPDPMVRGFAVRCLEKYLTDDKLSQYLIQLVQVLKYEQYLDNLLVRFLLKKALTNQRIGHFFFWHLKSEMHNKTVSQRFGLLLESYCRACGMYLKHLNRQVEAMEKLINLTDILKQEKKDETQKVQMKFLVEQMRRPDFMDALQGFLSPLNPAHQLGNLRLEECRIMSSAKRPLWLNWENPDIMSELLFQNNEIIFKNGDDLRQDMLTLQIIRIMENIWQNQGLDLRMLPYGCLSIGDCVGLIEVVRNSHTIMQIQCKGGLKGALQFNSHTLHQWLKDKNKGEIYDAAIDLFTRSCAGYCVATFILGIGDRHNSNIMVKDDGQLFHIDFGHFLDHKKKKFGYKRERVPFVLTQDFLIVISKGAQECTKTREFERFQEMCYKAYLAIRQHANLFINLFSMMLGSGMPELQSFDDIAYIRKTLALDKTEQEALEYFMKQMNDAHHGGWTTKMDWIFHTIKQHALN
Phosphatidylinositol 4,5-bisphosphate 3-kinase catalytic subunit gamma isoform, sequence (P48736 whole entry, canonical isoform): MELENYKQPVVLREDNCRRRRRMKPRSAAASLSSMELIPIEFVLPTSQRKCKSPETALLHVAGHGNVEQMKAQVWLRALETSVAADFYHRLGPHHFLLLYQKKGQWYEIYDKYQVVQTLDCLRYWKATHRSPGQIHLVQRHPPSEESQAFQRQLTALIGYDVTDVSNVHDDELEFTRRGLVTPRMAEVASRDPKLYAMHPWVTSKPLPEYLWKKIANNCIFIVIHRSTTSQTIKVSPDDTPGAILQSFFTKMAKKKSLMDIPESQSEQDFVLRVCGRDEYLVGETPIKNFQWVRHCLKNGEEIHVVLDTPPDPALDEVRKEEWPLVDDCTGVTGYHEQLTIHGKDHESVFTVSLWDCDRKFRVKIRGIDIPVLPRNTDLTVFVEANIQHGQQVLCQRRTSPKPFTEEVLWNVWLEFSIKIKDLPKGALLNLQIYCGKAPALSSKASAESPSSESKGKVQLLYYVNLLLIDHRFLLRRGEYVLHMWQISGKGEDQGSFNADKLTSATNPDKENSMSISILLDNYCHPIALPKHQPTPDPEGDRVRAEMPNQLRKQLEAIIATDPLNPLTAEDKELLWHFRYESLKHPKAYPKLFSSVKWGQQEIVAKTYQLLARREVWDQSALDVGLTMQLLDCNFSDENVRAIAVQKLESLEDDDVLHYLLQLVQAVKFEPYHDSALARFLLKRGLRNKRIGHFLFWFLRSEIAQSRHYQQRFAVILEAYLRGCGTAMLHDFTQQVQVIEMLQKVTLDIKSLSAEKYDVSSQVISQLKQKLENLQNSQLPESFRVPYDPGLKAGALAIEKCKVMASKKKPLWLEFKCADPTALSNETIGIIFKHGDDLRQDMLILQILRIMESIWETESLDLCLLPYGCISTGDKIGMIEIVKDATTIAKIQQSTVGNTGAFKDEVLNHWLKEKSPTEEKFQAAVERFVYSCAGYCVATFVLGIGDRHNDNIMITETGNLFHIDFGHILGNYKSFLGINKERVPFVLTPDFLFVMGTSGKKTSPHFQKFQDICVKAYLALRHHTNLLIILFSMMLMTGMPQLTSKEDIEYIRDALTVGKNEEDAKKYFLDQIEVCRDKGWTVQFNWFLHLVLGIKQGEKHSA

IC50 [1] [nM]	GI50 (T47D) [nM]	IC50 [2] [nM]	GI50 (MCF7) [nM]	GI50 (U-87 MG) [nM]	GI50 (NCI-H460) [nM]	IC50 [3] [nM]	IC50 [4] [nM]	GI50 (KARPAS-422) [nM]	SMILES	GI50 (Pfeiffer) [nM]
268									O=S(=O)(Nc1cc(-c2cnc3[nH]c(-c4ccccc4)cc3c2)cnc1Cl)c1ccccc1	
37	4400	29	7400	8940	7610	1	51	1090	O=S(=O)(Nc1cc(-c2cnc3[nH]ncc3c2)cnc1Cl)c1ccccc1	1160
15	7720	39	> 10000	> 10000	> 10000	1	2	1830	O=S(=O)(Nc1cc(-c2cnc3[nH]cc(-c4ccccc4)c3c2)cnc1Cl)c1ccccc1	1520
381									Cc1ncc(-c2ccc(N)nc2)cc1NS(=O)(=O)c1ccccc1	
445									O=C(Nc1ccc(-c2cnc(Cl)c(NS(=O)(=O)c3ccccc3)c2)cn1)C1CC1	
1590									Nc1ccc(-c2cncc(NS(=O)(=O)c3ccccc3)c2)cn1	
0.7	1300	2	2910	> 10000	6190	0.4	1	370	O=S(=O)(Nc1cc(-c2cnc3[nH]cc(-c4ccncc4)c3c2)cnc1Cl)c1ccc(F)cc1	410
2060									COc1ncc(-c2ccc(N)nc2)cc1NS(=O)(=O)c1ccccc1	
68									CN(C)C(=O)Nc1ccc(-c2cnc(Cl)c(NS(=O)(=O)c3ccccc3)c2)cn1	
155									CCc1cc2cc(-c3cnc(Cl)c(NS(=O)(=O)c4ccccc4)c3)cnc2[nH]1	
63									Cc1cc2cc(-c3cnc(Cl)c(NS(=O)(=O)c4ccccc4)c3)cnc2[nH]1	
4750									CS(=O)(=O)Nc1ccc(-c2cnc(Cl)c(NS(=O)(=O)c3ccccc3)c2)cn1	
375									Nc1ccc(-c2cnc(Cl)c(NS(=O)(=O)c3ccccc3)c2)cn1	
7	520	4	690	3120	2500	0.7	1	170	O=S(=O)(Nc1cc(-c2cnc3[nH]nc(-c4ccncc4)c3c2)cnc1Cl)c1ccccc1	150
0.7	1790	3	2500	7130	> 10000	0.5	1	350	O=S(=O)(Nc1cc(-c2cnc3[nH]cc(-c4ccncc4)c3c2)cnc1Cl)c1ccccc1F	290
2970									Nc1ccc(-c2cnc(N)c(NS(=O)(=O)c3ccccc3)c2)cn1	
97	> 10000	35	> 10000	> 10000	> 10000	1	35	6710	O=S(=O)(Nc1cc(-c2cnc3[nH]ccc3c2)cnc1Cl)c1ccccc1	5500
17	4190	6	7370	> 10000	8650	1	2	1230	O=S(=O)(Nc1cc(-c2cnc3[nH]nc(-c4ccccc4)c3c2)cnc1Cl)c1ccccc1	1300
1490									CCNc1ccc(-c2cnc(Cl)c(NS(=O)(=O)c3ccccc3)c2)cn1	
0.5	1500	2	2140	8950	3900	0.6	1	120	O=S(=O)(Nc1cc(-c2cnc3[nH]cc(-c4ccncc4)c3c2)cnc1Cl)c1ccccc1	100
420									CC(=O)Nc1ccc(-c2cnc(Cl)c(NS(=O)(=O)c3ccccc3)c2)cn1	
	300		60	280	610				Cn1c(=O)n(-c2ccc(C(C)(C)C#N)cc2)c2c3cc(-c4cnc5ccccc5c4)ccc3ncc21 [DACTOLISIB]	
								680	CC[C@H](Nc1ncnc2[nH]cnc12)c1nc2cccc(F)c2c(=O)n1-c1ccccc1 [IDELALISIB]	740
